Source: ChEMBL document CHEMBL1201862, “PubChem BioAssay data set” (2004)
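Where inhibition never reached the appropriate level, the endpoint shown equals the highest concentration tested. Otherwise, values were interpolated linearly from a five-concentration, 48-hour dose response in 96-well plates. GI50: concentration for 50% inhibition of growth.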 The source made the active and inactive calls. No stated cut-off is given here; in the data, active = GI50 up to about 1.1 µM and inactive = higher.

Key:
Experiment in all cases: NCI-60 cell line screen, 48 h
MCF7 = tested on: MCF7
SK-OV-3 = tested on: SK-OV-3
SW-620 = tested on: SW-620
IGROV-1 = tested on: IGROV-1
HOP-92 = tested on: HOP-92
OVCAR-8 = tested on: OVCAR-8
NCI-H460 = tested on: NCI-H460
CCRF-CEM = tested on: CCRF-CEM
Hs-578T = tested on: Hs-578T
SF-295 = tested on: SF-295
SK-MEL-28 = tested on: SK-MEL-28
UACC-257 = tested on: UACC-257
MDA-MB-435 = tested on: MDA-MB-435
SF-539 = tested on: SF-539
HCT-116 = tested on: HCT-116
KM12 = tested on: KM12
EKVX = tested on: EKVX
Malme-3M = tested on: Malme-3M
K562 = tested on: K562
HCC 2998 = tested on: HCC 2998

Measured: GI50

COC(=O)c1cnc(Cl)cn1
inactive: MCF7 38.4 µM | SK-OV-3 > 100 µM | SW-620 63.7 µM | IGROV-1 29.4 µM | HOP-92 28.4 µM | OVCAR-8 73.5 µM | NCI-H460 > 100 µM | CCRF-CEM 35.9 µM | Hs-578T 50.6 µM | SF-295 > 100 µM | SK-MEL-28 53.3 µM | UACC-257 57.9 µM | MDA-MB-435 48.4 µM | SF-539 74.3 µM | HCT-116 38.2 µM | KM12 24.9 µM | EKVX 33.3 µM | Malme-3M 50.2 µM | K562 40.1 µM

C1CCNCC1.Oc1ncnc2[nH]cc(CN3CCCCC3)c12
inactive: MCF7 28.8 µM | SK-OV-3 > 100 µM | SW-620 38 µM | IGROV-1 > 100 µM | HOP-92 77.3 µM | OVCAR-8 > 100 µM | NCI-H460 16 µM | CCRF-CEM 16.4 µM | Hs-578T > 100 µM | SF-295 > 100 µM | SK-MEL-28 > 100 µM | UACC-257 21.5 µM | MDA-MB-435 > 100 µM | SF-539 71.4 µM | HCT-116 15.7 µM | KM12 > 100 µM | EKVX > 100 µM | Malme-3M 64.9 µM | K562 > 100 µM

Cc1c2c(n3c(nc4ccccc43)c1C#N)SCC2
inactive: MCF7 > 10 µM | SK-OV-3 > 10 µM | SW-620 > 10 µM | IGROV-1 > 10 µM | HOP-92 > 10 µM | OVCAR-8 > 10 µM | NCI-H460 > 10 µM | CCRF-CEM > 10 µM | Hs-578T > 10 µM | SF-295 > 10 µM | SK-MEL-28 > 10 µM | UACC-257 > 10 µM | MDA-MB-435 > 10 µM | SF-539 > 10 µM | HCT-116 > 10 µM | KM12 > 10 µM | EKVX > 10 µM | Malme-3M > 10 µM | K562 > 10 µM

Cc1sc2ccccc2[n+]1CCC(=O)O
inactive: MCF7 > 100 µM | SK-OV-3 > 100 µM | SW-620 > 100 µM | IGROV-1 > 100 µM | HOP-92 > 100 µM | OVCAR-8 > 100 µM | NCI-H460 > 100 µM | Hs-578T > 100 µM | SF-295 > 100 µM | SK-MEL-28 > 100 µM | UACC-257 > 100 µM | MDA-MB-435 > 100 µM | SF-539 > 100 µM | HCT-116 > 100 µM | KM12 > 100 µM | EKVX > 100 µM | Malme-3M > 100 µM | K562 6.67 µM

O=C1C2CCN(CC2)C1(CO)CO
inactive: MCF7 24.7 µM | SK-OV-3 60.7 µM | SW-620 18.2 µM | IGROV-1 > 89.5 µM | HOP-92 22 µM | OVCAR-8 28.1 µM | NCI-H460 66.7 µM | CCRF-CEM 5.06 µM | Hs-578T 31.3 µM | SF-295 > 100 µM | SK-MEL-28 26.4 µM | UACC-257 18.6 µM | MDA-MB-435 61.5 µM | SF-539 40.9 µM | HCT-116 17 µM | KM12 64.7 µM | EKVX 49.7 µM | Malme-3M 18.2 µM | K562 23.6 µM

CCCCSC1=N/C(=C\c2ccc(N(C)C)cc2)C(NN)=N1
inactive: MCF7 > 100 µM | SK-OV-3 > 100 µM | SW-620 > 100 µM | IGROV-1 > 100 µM | HOP-92 > 100 µM | HCC 2998 > 100 µM | OVCAR-8 > 100 µM | NCI-H460 > 100 µM | CCRF-CEM > 100 µM | Hs-578T > 100 µM | SF-295 > 100 µM | SK-MEL-28 > 100 µM | UACC-257 > 100 µM | MDA-MB-435 > 100 µM | HCT-116 > 100 µM | KM12 > 100 µM | EKVX > 100 µM | Malme-3M > 100 µM | K562 > 100 µM
